Earlier results in patent US12414928B2, “Viral inactivation spray and gargling formulation” (priority 2021, dated 2025).

Legend:
[1] = system: coronavirus disease 2019 (COVID-19)
[2] = system: enveloped virus; settings: in vitro, pH 4.0

Row | Structure (SMILES) | virus inactivation [1] | enveloped virus inactivation [2]
1 | Cl [Hydrochloric Acid] | 100% | 
2 | N=C(N)NCCC[C@H](N)C(=O)O [L-Arginine] |  | 5 logs reduction
